Assay results taken from patent US20180344702A1, “METHODS FOR TREATING PATIENTS WITH HEMATOLOGIC MALIGNANCIES” (Aptose Biosciences, Inc., priority 2017, published 2018).
Where “and” joins values, the source holds several entries; their conditions need not be identical. Equal entries are not always repeated.

Tests used:
[1] = biological target: FLT3(WT) (Homo sapiens, UniProt P36888); assay: Inhibition of FLT3, kinase IC50; format: biochemical
Description: (§1) RBC HotSpot Kinase Assay Protocol:
(§2) Reagents used: Base Reaction buffer; 20 mM Hepes (pH 7.5), 10 mM MgCl2, 1 mM EGTA, 0.02% Brij35, 0.02 mg/ml BSA, 0.1 mM Na3VO4, 2 mM DTT, 1% DMSO. Required cofactors are added individually to each kinase reaction.
(§3) Compound 7 was dissolved in 100% DMSO to a specified concentration. The serial dilution was conducted by epMotion 5070 in DMSO. The substrate was freshly prepared in Reaction Buffer and any required cofactors to the substrate solution were added. The kinase was added to the solution and gently mixed. Compound 7 was added in 100% DMSO into the kinase reaction mixture by Acoustic technology (Echo550; nanoliter range), and incubated for 20 min at room temperature. ^33P-ATP (Specific activity 10 μCi/μl) was added into the reaction mixture to initiate the reaction, which was incubated for 2 hours, whereupon kinase activity was detected by the filter-binding method.

[2] = biological target: BTK WT (Homo sapiens, UniProt Q06187); assay: Comparative potency against BTK (Table 8); format: biochemical; conditions: Table 8, wild-type BTK
[3] = biological target: T1, BTK C481S (Homo sapiens, UniProt Q06187, C481S); assay: Comparative potency against BTK (Table 8); format: biochemical; conditions: x printed without key
[4] = tested on: Molm-13; assay: Cytotoxicity, MTS cell viability; format: cell-based; conditions: Homo sapiens, AML, 72 hour MTS
Description: Cytotoxicity procedure: Cells were seeded in 96-well plate and treated with vehicle DMSO or Compound 7 at a specified concentration and incubated for 72 hours.

[5] = tested on: Ba/F3 cells transfected with FLT3 ITD; assay: Cytotoxicity in isogenic transfected Ba/F3 cells (Table 4); format: cell-based, Murin; conditions: Mus musculus, BaF3, read-out: IC50 in Transfected Ba/F3 cells, FLT3 ITD
[6] = tested on: Ba/F3-ITD (FLT3-ITD); assay: Antiproliferative activity (Table 6); format: cell-based, Murin; conditions: 72 h
[7] = tested on: ALL patient samples; assay: Ex vivo assay for patient sensitivity (MTS, 3-day culture); format: cell-based, human; conditions: N evaluated 18
Description: (§4) 85 Patients with a diagnosis of acute myeloid leukemia (AML), 15 patients with myelodysplastic syndrome/myeloproliferative neoplasms (MDS/MPN), 18 patients with acute lymphoblastic leukemia (ALL), and 56 patients with chronic lymphocytic leukemia (CLL) were evaluated for sensitivity to the multi-kinase inhibitor, Compound 7, using an ex vivo assay. Sensitivity to Compound 7 was evaluated across a concentration range from 10 nM to 10 μM. Cell viability was assessed using a colorimetric, tetrazolium-based MTS assay after a 3-day culture period, and IC50 values were calculated as a measure of drug sensitivity.

[8] = tested on: AML patient samples; assay: as above; format: cell-based, human; conditions: N evaluated 85, 10 nM to 10 μM
Description: as §4

[9] = tested on: CLL patient samples; assay: as above; format: cell-based, human; conditions: N evaluated 56
Description: as §4

[10] = tested on: MDS/MPN patient samples; assay: as above; format: cell-based, human; conditions: N evaluated 15
Description: as §4

[11] = tested on: BTK pathway in MV4-11 cells; assay: Western blot analysis in MV4-11 cells; format: cell-based, human; conditions: 0.5, 5.0, and 50 nM, FIG. 2
Description: (§5) Immunoblot assays: Cells were treated with Compound 7 at various concentrations and collected for cell lysates. The total and phosphorylated levels of the indicated proteins were determined by Western Blot.

[12] = tested on: FLT3 pathway in MV4-11 cells; assay: Western blot analysis in MV4-11 cells; format: cell-based, human; conditions: FIG. 1
Description: as §5

[13] = tested on: BTK pathway in EOL-1 cells; assay: Western blot analysis in EOL-1 cells; format: cell-based; conditions: 0.5, 5.0, and 50 nM, FIG. 3
Description: as §5

[14] = tested on: MV4-11 cells; assay: Apoptosis of MV4-11 cells (Annexin V, Western blot); format: cell-based, human
Description: The data presented in FIGS. 7A-7C, FIGS. 8A-8B, and FIGS. 17A-17J were generated using well-known protocols for measuring apoptosis, which are readily apparent to a skilled artisan. Without being bound by any theory, an overview of the procedure can be found in, for example, Rieger et al., Modified Annexin V/Propidium Iodide Apoptosis Assay For Accurate Assessment of Cell Death, J VI. Exp. 2011; (50): 2597.
IC50s and EC50s: Certain cell viability studies described herein were assessed using the Tryptan blue dye exclusion method or the MTS assay. Certain apoptosis studies and related studies described herein were determined via FACS by annexin V positivity.

[15] = tested on: various heme cell lines (MV4-11, NOMO-1, and KG-1 cells); assay: Polyploidy, EdU and PI staining with FACS; format: cell-based; conditions: 24 hours, increasing concentrations
Description: MV4-11, NOMO-1, and KG-1 cells were treated at increasing concentrations of Compound 7 for 24 hours, and the increase in DNA content or polploidy phenotype was assessed using EdU and PI staining followed by FACS analysis using the BD Accuri C6 flow.

[16] = tested on: Aurora kinase in FLT3 WT cells (KG-1); assay: Cell signaling Western blot; format: cell-based; conditions: KG-1 cells, FIGS. 25A-25B
Description: as §5

[17] = tested on: PDGFRA and FLT3 (WT) signaling in EOL-1 cells; assay: Cell signaling Western blot; format: cell-based
Description: as §5

[18] = tested on: Ramos; assay: Apoptosis in B-cell malignancies (annexin V/PI, cleaved PARP); format: cell-based; conditions: increasing concentrations
Description: Mechanistic studies were undertaken to determine the mechanism of action for Compound 7. The apoptotic state of treated cells was determined by staining with annexin V and propidium iodide (PI), then analysis with the BD Accuri C6 flow cytometer, whereby live cells are annexin V/PI negative, early apoptotic cells are annexin V positive and late apoptotic cells are annexin V and PI positive. In addition production of cleaved PARP, a classic apoptotic marker, was assayed by western blotting with specific antibodies.

[19] = tested on: EOL-1; assay: Cytotoxicity in high serum conditions (MTS); format: cell-based; conditions: EOL-1, 72 hours, 10% vs 30%, 50%, 80% FBS
Description: Compound 7 was tested in a dose-dependent manner at different serum concentrations. […] In this experiment, MV4-11 (n=6) and EOL-1(n=3˜6) cells were treated with or without Compound 7 for 72 hours in medium containing normal (10%) or high serum (30%, 50%, 80%) FBS with an MTS assay serving as an end point.

[20] = biological target: T1, BTK C481S; assay: Inhibition of BTK, kinase IC50; format: biochemical; parameters: RBC (only as the name of the general kinase protocol)
Description: as §1, §2, §3

T1 sequence (Q06187 whole entry C481S): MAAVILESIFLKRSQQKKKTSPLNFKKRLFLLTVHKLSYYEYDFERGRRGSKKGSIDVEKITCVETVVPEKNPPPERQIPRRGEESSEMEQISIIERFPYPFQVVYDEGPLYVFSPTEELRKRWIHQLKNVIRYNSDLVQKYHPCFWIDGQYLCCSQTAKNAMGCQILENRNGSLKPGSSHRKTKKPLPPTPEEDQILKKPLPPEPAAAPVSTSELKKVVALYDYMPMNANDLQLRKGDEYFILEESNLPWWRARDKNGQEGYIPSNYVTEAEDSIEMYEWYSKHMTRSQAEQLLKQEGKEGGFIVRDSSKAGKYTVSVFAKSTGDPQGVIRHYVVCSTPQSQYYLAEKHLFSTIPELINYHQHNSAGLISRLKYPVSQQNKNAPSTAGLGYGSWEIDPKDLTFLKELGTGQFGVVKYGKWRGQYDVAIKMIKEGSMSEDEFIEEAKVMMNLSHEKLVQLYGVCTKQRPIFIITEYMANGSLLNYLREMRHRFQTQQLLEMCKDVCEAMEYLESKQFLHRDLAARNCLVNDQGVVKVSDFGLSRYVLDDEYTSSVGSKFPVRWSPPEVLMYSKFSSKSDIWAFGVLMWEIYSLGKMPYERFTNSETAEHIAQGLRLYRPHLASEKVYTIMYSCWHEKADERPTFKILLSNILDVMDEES
FLT3(WT), sequence (P36888 27-993): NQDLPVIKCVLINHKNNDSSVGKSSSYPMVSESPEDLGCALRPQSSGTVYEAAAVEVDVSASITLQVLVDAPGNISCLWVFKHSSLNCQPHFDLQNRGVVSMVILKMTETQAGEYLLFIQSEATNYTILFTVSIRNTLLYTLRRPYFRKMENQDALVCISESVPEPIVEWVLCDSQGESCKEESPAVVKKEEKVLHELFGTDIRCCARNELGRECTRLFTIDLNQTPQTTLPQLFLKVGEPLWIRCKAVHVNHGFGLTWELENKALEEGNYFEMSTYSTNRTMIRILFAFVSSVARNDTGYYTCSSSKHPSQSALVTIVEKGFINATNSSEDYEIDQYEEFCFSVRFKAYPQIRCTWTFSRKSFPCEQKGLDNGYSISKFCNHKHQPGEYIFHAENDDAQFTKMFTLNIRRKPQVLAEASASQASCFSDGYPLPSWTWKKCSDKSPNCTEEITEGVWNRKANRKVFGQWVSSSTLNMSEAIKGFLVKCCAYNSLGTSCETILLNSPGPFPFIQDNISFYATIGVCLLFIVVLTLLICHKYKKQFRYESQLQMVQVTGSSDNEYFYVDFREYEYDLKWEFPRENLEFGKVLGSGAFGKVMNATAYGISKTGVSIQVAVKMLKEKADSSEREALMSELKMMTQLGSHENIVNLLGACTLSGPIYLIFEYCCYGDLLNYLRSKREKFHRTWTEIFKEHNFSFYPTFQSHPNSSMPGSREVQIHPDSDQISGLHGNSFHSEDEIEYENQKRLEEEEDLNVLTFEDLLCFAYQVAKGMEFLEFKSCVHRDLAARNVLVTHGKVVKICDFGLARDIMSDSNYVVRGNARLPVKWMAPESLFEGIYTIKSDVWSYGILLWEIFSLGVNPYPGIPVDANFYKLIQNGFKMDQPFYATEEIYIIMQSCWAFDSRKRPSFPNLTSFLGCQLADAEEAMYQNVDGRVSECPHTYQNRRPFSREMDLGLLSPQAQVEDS
BTK WT, sequence (Q06187 whole entry): as the sequence (Q06187 whole entry C481S) above, with S481C counted along it

Cc1cnc(-c2ccc(-c3ccc(NC(=O)Nc4c(F)cc(F)cc4F)cc3F)c3c2C(=O)NC3)[nH]1 [Compound 7, 1-{3-fluoro-4-[7-(5-methyl-1H-imidazol-2-yl)-1-oxo-2,3-dihydro-1H-isoindol-4-yl]-phenyl}-3-(2,4,6-trifluorophenyl)urea]
IC50 [1]: 8.75 nM | IC50 [2]: 5 nM | IC50 [3]: 2.5 nM | IC50 [4]: 0.395 nM | IC50 [5]: 0.5 nM | IC50 [6]: 0.3 nM | % samples with IC50 < 0.1 μM [7]: 61 (11/18) % | % samples with IC50 < 0.1 μM [8]: 60% and 60 (51/85) % | % samples with IC50 < 0.1 μM [9]: 41 (23/56) % | % samples with IC50 < 0.1 μM [10]: 53 (8/15) % | Inhibition of BTK pathway (Western blot) [11]: inhibits BTK pathway | Inhibition of FLT3 pathway (Western blot) [12]: inhibits FLT3 pathway | Inhibition of BTK pathway (Western blot) [13]: inhibits BTK pathway | Time dependency of apoptosis ([14]; MV4-11 cells, 1, 3, 6, 24 hour): induces apoptosis in a time dependent manner | Apoptosis induction ([14]; MV411 cells, 24 hours, various concentrations): induces apoptosis | Polyploidies [15]: induce polyploidies | Aurora kinase activity and signaling (Western blot) [16]: inhibits Aurora kinase activity and signaling | PDGFRA and FLT3 (WT) signaling (Western blot) [17]: inhibits PDGFRA and FLT3 (WT) signaling | Apoptosis induction versus ibrutinib [18]: induced apoptosis more effectively than ibrutinib at all concentrations tested | Activity at high serum concentration [19]: retains high activity at high serum concentration | IC50 [20]: 2.52 nM
